Test results taken from ChEMBL document CHEMBL1201862, “PubChem BioAssay data set” (2004).
The source made the active and inactive calls.

Columns and labels:
[1] = molecular target: 5-hydroxytryptamine receptor 5A (Homo sapiens, UniProt P47898); test: Counterscreen for agonists of OPRM1-OPRD1 heterodimerization: luminescence-based cell-based high throughput dose response assay to identify agonists of 5-hydroxytryptamine (serotonin) 5A receptor (HTR5A). [Related pubchem assays (depositor defined):AID504326, AID504355, AID504692, AID504904, AID504905]; type: functional
Chain of 5-hydroxytryptamine receptor 5A (P47898 whole entry): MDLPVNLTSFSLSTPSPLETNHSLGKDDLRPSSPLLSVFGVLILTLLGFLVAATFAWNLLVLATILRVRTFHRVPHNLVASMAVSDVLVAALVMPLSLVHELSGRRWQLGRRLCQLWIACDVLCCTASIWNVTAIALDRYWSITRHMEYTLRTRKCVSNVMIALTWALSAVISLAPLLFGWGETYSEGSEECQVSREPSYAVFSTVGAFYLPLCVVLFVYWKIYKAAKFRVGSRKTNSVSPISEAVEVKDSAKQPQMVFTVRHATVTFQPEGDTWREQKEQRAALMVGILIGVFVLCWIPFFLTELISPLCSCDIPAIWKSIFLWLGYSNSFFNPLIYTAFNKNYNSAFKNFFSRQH

[2] = molecular target: T1, Short transient receptor potential channel 4 (Mus musculus, UniProt Q9QUQ5); test: calcium entry via TRPC4 opening agents – cell-based, HEK293 TRPC4/mu-opioid, Fluo-4 calcium, dose response (AID 434937); type: functional
T1 sequence (Q9QUQ5 whole entry): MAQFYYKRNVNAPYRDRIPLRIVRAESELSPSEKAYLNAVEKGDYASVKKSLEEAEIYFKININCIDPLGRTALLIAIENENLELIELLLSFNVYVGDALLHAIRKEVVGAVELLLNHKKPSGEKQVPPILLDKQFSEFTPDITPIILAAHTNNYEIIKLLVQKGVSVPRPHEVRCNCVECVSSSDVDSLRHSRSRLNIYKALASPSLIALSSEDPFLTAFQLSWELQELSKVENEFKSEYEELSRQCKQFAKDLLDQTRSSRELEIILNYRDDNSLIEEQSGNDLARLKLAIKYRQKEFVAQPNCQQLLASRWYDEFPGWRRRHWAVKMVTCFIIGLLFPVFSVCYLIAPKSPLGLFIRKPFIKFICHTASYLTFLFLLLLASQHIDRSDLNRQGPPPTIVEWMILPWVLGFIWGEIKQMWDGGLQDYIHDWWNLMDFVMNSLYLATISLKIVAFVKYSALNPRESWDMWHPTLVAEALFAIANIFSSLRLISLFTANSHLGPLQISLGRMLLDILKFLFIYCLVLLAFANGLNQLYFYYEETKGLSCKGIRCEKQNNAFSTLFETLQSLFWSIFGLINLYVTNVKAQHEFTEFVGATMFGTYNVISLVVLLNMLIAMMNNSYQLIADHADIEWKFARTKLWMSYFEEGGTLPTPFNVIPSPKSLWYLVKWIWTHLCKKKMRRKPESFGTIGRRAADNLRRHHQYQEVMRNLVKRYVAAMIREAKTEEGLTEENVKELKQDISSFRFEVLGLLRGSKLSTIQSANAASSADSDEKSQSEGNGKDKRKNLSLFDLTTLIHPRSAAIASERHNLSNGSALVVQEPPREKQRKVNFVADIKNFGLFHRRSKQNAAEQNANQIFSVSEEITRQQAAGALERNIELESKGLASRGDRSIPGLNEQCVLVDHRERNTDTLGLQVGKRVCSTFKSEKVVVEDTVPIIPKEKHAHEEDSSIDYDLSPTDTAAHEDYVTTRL

Mu-type opioid receptor = Mu-type opioid receptor (Homo sapiens, UniProt P35372); test: (§1) Counterscreen for agonists of heterodimerization of the mu 1 (OPRM1) and delta 1 (OPRD1) opioid receptors: Luminescence-based cell-based high throughput dose response assay to identify agonists of OPRM1 homodimerization.; type: functional
Chain of Mu-type opioid receptor (P35372 whole entry): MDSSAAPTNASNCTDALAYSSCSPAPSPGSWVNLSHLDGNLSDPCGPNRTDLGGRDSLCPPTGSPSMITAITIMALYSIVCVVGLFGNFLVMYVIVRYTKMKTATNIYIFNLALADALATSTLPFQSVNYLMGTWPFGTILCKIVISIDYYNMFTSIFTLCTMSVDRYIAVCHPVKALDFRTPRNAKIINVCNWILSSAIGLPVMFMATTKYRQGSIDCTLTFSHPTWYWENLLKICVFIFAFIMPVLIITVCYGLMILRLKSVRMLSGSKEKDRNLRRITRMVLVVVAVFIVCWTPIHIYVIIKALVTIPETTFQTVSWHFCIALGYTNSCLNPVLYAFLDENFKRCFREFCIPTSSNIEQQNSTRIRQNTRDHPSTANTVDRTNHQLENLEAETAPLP

[3] = molecular target: Delta-type opioid receptor (Homo sapiens, UniProt P41143); test: as §1, with “of OPRD1” for “of OPRM1”, “homodimerization. [Related pubchem assays (depositor defined):AID504326, AID504355, AID504692, AID504904, AID504905]” for “homodimerization.”; type: functional
Chain of Delta-type opioid receptor (P41143 whole entry): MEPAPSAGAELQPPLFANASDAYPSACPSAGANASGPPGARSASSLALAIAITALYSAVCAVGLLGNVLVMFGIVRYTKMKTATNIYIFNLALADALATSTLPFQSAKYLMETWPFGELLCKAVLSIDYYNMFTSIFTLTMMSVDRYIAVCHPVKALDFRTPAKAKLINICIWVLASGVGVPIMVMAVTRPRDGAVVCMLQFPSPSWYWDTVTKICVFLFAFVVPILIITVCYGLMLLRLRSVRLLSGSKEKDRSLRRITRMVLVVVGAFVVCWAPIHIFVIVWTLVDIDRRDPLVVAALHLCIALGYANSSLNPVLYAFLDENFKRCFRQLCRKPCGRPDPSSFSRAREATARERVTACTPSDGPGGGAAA

[4] = viability loss in HEK293 cells – cell-based, plate reader, cherry-picked samples, cytotoxicity control, dose response (AID 743446); type: functional
[5] = molecular target: T2, Heat shock factor protein 1 (Mus musculus, UniProt P38532); test: decrease of HSF1-responsive luciferase luminescence – cell-based, NIH3T3, dose retest, confirmation (AID 2382); type: functional;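 note: NIH3T3 fibroblasts with HSF1-driven luciferase reporter stressed by proteasome inhibitor MG132; luminescence from HSF1-driven luciferase expression after 8 hours of MG132 stress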
T2 sequence (P38532 whole entry): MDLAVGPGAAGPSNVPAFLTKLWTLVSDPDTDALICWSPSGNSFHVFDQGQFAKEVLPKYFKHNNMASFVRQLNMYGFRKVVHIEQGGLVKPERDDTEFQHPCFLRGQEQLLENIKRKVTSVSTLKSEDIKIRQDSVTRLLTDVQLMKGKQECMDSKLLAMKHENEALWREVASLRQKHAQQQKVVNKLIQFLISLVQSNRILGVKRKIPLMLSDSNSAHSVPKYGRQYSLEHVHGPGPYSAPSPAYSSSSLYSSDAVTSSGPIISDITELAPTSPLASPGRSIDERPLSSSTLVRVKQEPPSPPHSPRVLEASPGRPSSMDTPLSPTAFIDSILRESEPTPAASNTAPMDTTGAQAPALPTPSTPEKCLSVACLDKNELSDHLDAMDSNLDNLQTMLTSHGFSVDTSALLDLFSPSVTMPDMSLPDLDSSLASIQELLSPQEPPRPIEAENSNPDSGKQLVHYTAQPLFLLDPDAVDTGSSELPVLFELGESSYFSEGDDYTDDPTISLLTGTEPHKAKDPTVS

HEK293 [6] = test: cells; type: functional, cell-based; details: Homo sapiens
HEK293 [7] = test: inhibition of NOD1-driven NF-kB reporter – cell-based, luminescence, uHTS, primary screen (AID 1578); type: functional; details: Homo sapiens
[8] = molecular target: Luciferin 4-monooxygenase (Photuris pensylvanica, UniProt Q27757); test: inhibition of Cell Titer Glo luciferase signal – biochemical, luminescence, cherry-picks, counter-screen for HSF-1 reporter inhibitor project, dose response (AID 588847)
Chain of Luciferin 4-monooxygenase (Q27757 whole entry, the tested form may be a part): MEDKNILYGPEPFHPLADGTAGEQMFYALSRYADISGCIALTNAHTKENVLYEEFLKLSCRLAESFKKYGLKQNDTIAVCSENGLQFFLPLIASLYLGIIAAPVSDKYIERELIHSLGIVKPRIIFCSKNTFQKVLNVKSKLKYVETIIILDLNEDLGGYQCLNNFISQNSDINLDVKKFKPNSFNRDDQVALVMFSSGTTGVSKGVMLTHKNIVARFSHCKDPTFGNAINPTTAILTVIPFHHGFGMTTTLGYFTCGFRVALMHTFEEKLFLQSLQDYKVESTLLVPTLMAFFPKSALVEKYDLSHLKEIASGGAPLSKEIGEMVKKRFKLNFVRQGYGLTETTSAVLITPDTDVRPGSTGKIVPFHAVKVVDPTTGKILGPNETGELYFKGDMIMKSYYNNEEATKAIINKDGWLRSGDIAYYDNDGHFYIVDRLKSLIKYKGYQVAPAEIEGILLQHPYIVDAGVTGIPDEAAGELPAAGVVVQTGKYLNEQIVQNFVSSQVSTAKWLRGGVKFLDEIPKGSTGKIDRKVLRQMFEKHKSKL

[9] = molecular target: Nucleotide-binding oligomerization domain-containing protein 2 (Homo sapiens, UniProt Q9HC29); test: inhibition of NOD2-driven NF-kB reporter – cell-based, luminescence, uHTS, HEK293 (AID 1566); type: functional
Chain of Nucleotide-binding oligomerization domain-containing protein 2 (Q9HC29 whole entry, the tested form may be a part): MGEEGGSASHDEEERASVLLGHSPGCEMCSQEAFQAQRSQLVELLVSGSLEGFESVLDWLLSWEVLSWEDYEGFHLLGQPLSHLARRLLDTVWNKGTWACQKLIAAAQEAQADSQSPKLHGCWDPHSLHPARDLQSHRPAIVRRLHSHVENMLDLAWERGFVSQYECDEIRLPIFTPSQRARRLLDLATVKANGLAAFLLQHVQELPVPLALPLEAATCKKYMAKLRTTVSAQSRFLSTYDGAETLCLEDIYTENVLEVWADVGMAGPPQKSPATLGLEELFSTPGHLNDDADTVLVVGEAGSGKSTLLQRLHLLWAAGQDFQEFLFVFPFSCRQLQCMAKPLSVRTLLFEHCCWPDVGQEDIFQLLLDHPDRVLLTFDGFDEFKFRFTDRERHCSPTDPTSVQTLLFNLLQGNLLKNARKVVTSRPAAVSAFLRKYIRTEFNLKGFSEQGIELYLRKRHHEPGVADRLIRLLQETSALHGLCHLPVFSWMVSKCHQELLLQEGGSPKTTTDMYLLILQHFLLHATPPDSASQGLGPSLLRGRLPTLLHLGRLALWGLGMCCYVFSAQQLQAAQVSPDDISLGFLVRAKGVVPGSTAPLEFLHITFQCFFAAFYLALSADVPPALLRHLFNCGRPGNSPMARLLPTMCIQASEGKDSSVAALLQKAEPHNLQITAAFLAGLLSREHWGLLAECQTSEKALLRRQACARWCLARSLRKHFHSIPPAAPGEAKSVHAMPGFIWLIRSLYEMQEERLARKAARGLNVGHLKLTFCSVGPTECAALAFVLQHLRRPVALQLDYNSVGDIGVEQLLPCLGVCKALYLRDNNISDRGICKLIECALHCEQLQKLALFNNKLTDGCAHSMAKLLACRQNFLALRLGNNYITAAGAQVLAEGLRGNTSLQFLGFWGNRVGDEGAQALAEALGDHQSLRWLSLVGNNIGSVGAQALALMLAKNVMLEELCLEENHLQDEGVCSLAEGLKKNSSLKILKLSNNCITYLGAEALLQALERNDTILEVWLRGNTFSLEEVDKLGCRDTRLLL

[10] = blockade of melanocortin 4 receptor signaling – cell-based, plate reader, cherry pick, counter-screen for LGR2 antagonist project, dose response (AID 743444); type: functional;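 note: transfected HEK 293 cells stimulated with alpha-MSH peptide; potency of inhibitors of the alpha-MSH evoked signal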
[11] = blockers of bursicon-stimulated LGR2 cAMP reporter – cell-based, HEK293, CRE-luciferase reporter, cherry pick, set 2, dose response (AID 743343); type: functional;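 note: transfected cells were stimulated with diluted bursicon conditioned medium after compound addition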
HEK293 [12] = test: cells; type: functional, cell-based; details: Homo sapiens; remark: listed apart in the source
HEK293 [13] = test: cells; type: functional, cell-based; details: Homo sapiens; remark: listed apart in the source
HEK293 [14] = test: NOD2 signaling inhibitors in MDP-stimulated cells, cell-based, uHTS, luminescence (AID 2001); type: functional; details: Homo sapiens
Escherichia coli [15] = test: microbe, parasite or virus in culture
Escherichia coli [16] = test: microbe, parasite or virus in culture; remark: listed apart in the source
[17] = Luminescence Cell-Based Dose Response Follow up to Identify Inhibitors of Platelet Dense Granule Release. [Related pubchem assays (depositor defined):AID1663, AID1678, AID1889, AID2519]; type: functional
[18] = SFLLRN-induced P-Selectin Platelet Surface Expression Measured in Cell-Based System Using Flow Cytometry - 2016-03_Inhibitor_Dose_DryPowder_Activity_Set3. [Related pubchem assays (depositor defined):AID1678]; type: functional

With `COc1ccc(C(CNC(=O)CCOc2ccccc2)N(C)C)cc1` (centres undefined) the EC50 [1] was > 92.5 µM (inactive), the EC50 [2] was 1.06 µM (active) and the EC50 (Mu-type opioid receptor) was > 92.5 µM (inactive). For the same molecule, the EC50 [3] was > 92.5 µM (inactive).

For `Cc1cccc(-n2ncc3c(N(C)C4CCCCC4)ncnc32)c1`, the AC50 [4] was 40.2 µM (active), the EC50 [5] was < 0.16 µM (active) and the IC50 (HEK293 [6]) was > 20 µM (inactive). The EC50 (HEK293 [7]) was 9.93 µM (active), the AC50 [8] was 6.99 µM (active) and the EC50 [9] was < 0.31 µM (inactive). For the same molecule, the AC50 [10] was 0.0758 µM (active), the AC50 [11] was 0.121 µM (active) and the IC50 (HEK293 [12]) was 0.783 µM (active). For the same molecule, the IC50 (HEK293 [13]) was > 20 µM (inactive) and the IC50 (HEK293 [14]) was 6.81 µM (active).

In the case of `COc1ccc(C)cc1S(=O)(=O)N(C)CC(=O)N1CCC(C(N)=O)CC1`, the AC50 (Escherichia coli [15]) was > 380 µM (inactive) and the AC50 (Escherichia coli [16]) was 25.7 µM (active).

In the case of `CC(=O)Nc1ccc(NC(=O)c2ccccc2Br)cc1`, the EC50 [17] was 8.7 µM (active) and the AC50 [18] was 6.02 µM (active).
